Assay results taken from patent publication EP0728482A2, “Use of hcp specific compounds to enhance erythropoiesis” (SMITHKLINE BEECHAM CORPORATION, priority 1995, dated 1996).
Entries after “also recorded” stand apart in the source; their conditions may differ.

Legend:
[1] = target: T1, human src SH2 domain (Homo sapiens, UniProt P12931); experiment: ELISA-based SH2 domain / pY peptide binding assay, src SH2 domain; conditions: for Ki: Ki calculated from IC50 with the expanded equation; for IC50: inhibition of binding of 0.1 uM biotinylated pY peptide to SH2 domain fusion protein
T1 construct: made in house; host or cells: E. coli AR120
Experimental: (§1) The inhibitory activity of compounds at the different human SH2 domains was determined in vitro using SH2 domains expressed as fusion proteins in E. coli. The SH2 domains used herein were the human forms of the src SH2 domain, Grb2 SH2 domain, lck SH2 domain, fyn SH2 domain, SH-PTP2 SH2 domain, p85 SH2 domain and hcp SH2 domain.
The fusion proteins containing the src, lck and hcp SH2 domains were expressed as the general sequence: DET1-DET2-spacer-ek-SH2, where DET1, DET2, spacer, ek and SH2 are as described below. DET1 ("defined epitope tag 1") (SEQ ID NO: 1) is an 11 amino acid sequence found in the Human Immunodeficiency Virus Type 1 (HIV-1) envelope protein gp120 (or gp160). Monoclonal antibodies to various epitopes of HIV-1 gp120 (or gp 160) are known in the art, see, for example U.S. Patent 5,166,050. One preferred example is monoclonal antibody 178.1 (see, e.g., Thiriart et al., J. Immunol., 143:1832-1836 (1989)), which was prepared by immunization of mice with a yeast-expressed HIV-1 gp160 molecule from strain BH10 (Ratner et al., Nature, 313:277-284 (1985)). This tag was used for detection of expression (by Western blot), for purification of the protein (by affinity chromatography), and for configuring assays in which the fusion protein was captured or immobilized using the 178.1 antibody. DET2 is a hexa-histidine sequence tag (SEQ ID NO: 2) which binds to nickel-containing resins and was used for purification purposes. Spacer (SEQ ID NO: 3) was utilized to design a BamH1 restriction site at the indicated position of the construct. The term -ek-refers to a recognition sequence (SEQ ID NO: 4) for the enterokinase protease which provides for the optional removal of the tags from the SH2 domain, thus producing an SH2 domain that contains no extraneous amino acids. SH2 domains which contain no extraneous amino acids are preferable to tagged protein for crystallography studies. SH2 refers to the SH2 domains of different proteins.
Procedure 2: Cloning, expression and purification of human src SH2 domain containing tags and an enterokinase proteolytic cleavage site (DET1-DET2-spacer-ek-src SH2).
A DNA sequence encoding protein ek-src SH2 was PCR amplified from a cDNA clone containing the human src gene (c-src SH2 DNA sequence identical to that described in Takeya,T. and Hanafusa, H, 1983 Cell 32:881-890) using the following primers: [formula]
The PCR product was digested with BamHI and XbaI, followed by isolation of the digested fragment on an agarose gel. The fragment was ligated into BamHI-XbaI-digested expression vector containing the tagged chicken src gene DET1-DET2-spacer-SH2 described in Procedure 1 above. In that vector, the BamHI site is located between the coding regions for DET2 and SH2, and the XbaI site is located after the 3' end of the SH2 coding region. The ligation reaction was used to transform E. coli MM294cI^+. The construct DET1-DET2-spacer-ek-src SH2 was confirmed by DNA sequencing (SEQ ID NO: 5) and induced in E. coli strain AR120 as described in Procedure 1 above. A Coomassie-Blue-stained, Western-blot-positive induced protein band with an apparent molecular weight of 16,000 was observed after nalidixic acid induction.
Cells were lysed at neutral pH by sonication in the presance of lysozyme. After centrifugation, the soluble extract was chromatographed on a Ni^++NTA column. After washing the column with equilibration buffer (Tris buffer pH 8 containing 0.5 M Nacl) and the same buffer containing 15 mM imidazole, the protein was eluted in highly purified form with 25 mM imidazole in equilibration buffer.
The binding assays for the SH2 domains and pY peptides were performed in an ELISA-based 96 well plate assay. […]

[2] = system: B6D2F1 female mice; experiment: murine reticulocyte assay (Hayakawa assay); format: in vivo; conditions: oral gavage, once a day for 7 days
Experimental: The efficacy of hcp SH2 domain antagonist to enhance erythropoiesis is related to their ability to increase reticulocyte production in the murine reticulocyte assay (Hayakawa T, et al. Biologicals 20; 253 (1992) and Hayakawa T, et al. Biologicals 20; 243 (1992), (collectively hereinafter 'Hayakawa')).
L-3,5-Dibromo-3'-(6-oxo-3(1H)-pyridazinylmethyl)-thyronine (Compound 2) was tested for its in vivo potency to increase reticulocyte production in the Hayakawa assay.
To perform the experiment a total of 12 B6D2F1 female mice were used. The animals were administered Compound 2 (the compound was dissolved in water, pH 11, and administered by oral gavage) once a day for 7 days. At the end of the treatment period blood was collected from the animals and reticulocyte count was determined by known methods. (Hayakawa)

[3] = system: human hcp SH2 domain; experiment: ELISA-based SH2 domain / pY peptide binding assay, hcp SH2 domain; conditions: hcp SH2 domain versus src, lck, fyn, SH-PTP2, p85, Grb2 SH2 domains
Experimental: as §1
The fusion proteins containing the src, lck and hcp SH2 domains were expressed as the general sequence: DET1-DET2-spacer-ek-SH2, where DET1, DET2, spacer, ek and SH2 are as described below. DET1 ("defined epitope tag 1") (SEQ ID NO: 1) is an 11 amino acid sequence found in the Human Immunodeficiency Virus Type 1 (HIV-1) envelope protein gp120 (or gp160). Monoclonal antibodies to various epitopes of HIV-1 gp120 (or gp 160) are known in the art, see, for example U.S. Patent 5,166,050. One preferred example is monoclonal antibody 178.1 (see, e.g., Thiriart et al., J. Immunol., 143:1832-1836 (1989)), which was prepared by immunization of mice with a yeast-expressed HIV-1 gp160 molecule from strain BH10 (Ratner et al., Nature, 313:277-284 (1985)). This tag was used for detection of expression (by Western blot), for purification of the protein (by affinity chromatography), and for configuring assays in which the fusion protein was captured or immobilized using the 178.1 antibody. […]

Row | Compound | Ki [1] [µM] | IC50 [1] [µM] | Reticulocytes ([2]; 200 mg/kg/day) | Reticulocytes ([2]; 400 mg/kg/day) | Reticulocytes ([2]; 800 mg/kg/day) | binding affinities/inhibitory concentrations at the hcp SH2 domain than at other SH2 domains [3]
1 | 4-acetamido-benzamido-trans-4-methyl-cyclohexyl-N-1-(amino-R-2-(methoxy methyl)-pyrrolidine) carboxamide [Compound 8] | 12 | 16 |  |  |  | 
2 | N[C@@H](Cc1cc(Br)c(Oc2ccc(O)c(Cc3ccc(=O)[nH]n3)c2)c(Br)c1)C(=O)O [Compound 2, L-3,5-Dibromo-3'-(6-oxo-3(1H)-pyridazinylmethyl)-thyronine] |  |  | 321.0 ± 46.3 10^9/L | 310.8 ± 24.8 10^9/L | 375.2 ± 51.6 10^9/L | 
3 | Cc1nc2sc3c(c2c2[nH][nH]c(=O)c12)CCC1(C3)OCCO1 [Compound 3, 8,8-Ethylenedioxy-2,3,7,8,9,10-hexahydro-4-methyl-1H-benzo[b]thieno[2,3-b]pyrazolo[3,4-d]pyridin-3-one] | 6 | 16.1 |  |  |  | 
4 | Cc1nc2sc3c(c2c2c1c(=O)[nH]n2C)CCC1(C3)OCCO1 [Compound 5, 1,4-Dimethyl-8,8-ethylenedioxy-2,3,7,8,9,10-hexahydro-1H-benzo[b]thieno[2,3-b]pyrazolo[3,4-d]pyridin-3-one] | 28 | 63 |  |  |  | greater than fifty-fold higher; also recorded: greater than one hundred-fold higher
5 | CCCNC(=O)[C@H]1CC[C@H](CNC(=O)/C=C/c2ccc(C=O)cc2)CC1 [Compound 9, 4-formyl-E-cinnamido-trans-4-methyl-cyclohexyl-N-(propyl) carboxamide] | 55 | 131 |  |  |  | 

More lines, main results first:

Row | Ki [1] [µM] | IC50 [1] [µM] | Compound | Reticulocytes ([2]; 200 mg/kg/day) | Reticulocytes ([2]; 400 mg/kg/day) | Reticulocytes ([2]; 800 mg/kg/day) | binding affinities/inhibitory concentrations at the hcp SH2 domain than at other SH2 domains [3]
6 | 7 | 6 | Cc1nnc(SCC2=C(C(=O)O)N3C(=O)[C@@H](NC(=O)C(N)c4ccc(C(=O)O)cc4)[C@H]3SC2)s1 (stereo partly drawn) [Compound 1, 7-[D,L-α-Amino-α-(4-carboxyphenyl)acetamido]-3-[2-(5-methyl-1,3,4-thiadiazolyl)thiomethyl]Δ^3-cephem-4-carboxylic Acid] |  |  |  | 
7 | 40 | 40 | Cc1ccc(C(=O)c2ccc(C(=O)c3ccc(CC=O)cc3)cc2)cc1 [Compound 4, 4-[4-(4-Methylbenzoyl)benzoyl]phenylacetaldehyde] |  |  |  | 
